This passage reports GI50 and TGI results from PubChem BioAssay (NCI).

Test in all cases: NCI anticancer screen, dose series, 48 h
In assay [1] the test system is ACHN renal.
Assay [2] relates to CCRF-CEM leukemia.
For assay [3], the system named is DU-145 prostate.
Assay [4] deals with HS 578T breast.
The subject of assay [5] is K-562 leukemia.
The subject of assay [6] is MCF7 breast.
For assay [7], the system named is MOLT-4 leukemia.
Assay [8] deals with T-47D breast.
For assay [9], the system named is UACC-257 melanoma.
The subject of assay [10] is UACC-62 melanoma.

Molecules are shown by their SMILES.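 Test compounds were applied to cells in 96-well plates for 48 hours at 5 doses. GI50 is the concentration that inhibits growth by half. Definition used: TGI = concentration required for complete inhibition of growth.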

On to `CN(C)CCN1CCC(Cc2ccccc2)CC1`, for which the GI50 in assay [1] was over 80 µM; in assay [2], over 80 µM; in assay [3] it was over 80 µM; in assay [4], 44.1 µM; in assay [5] it was 15.4 µM; in assay [6] it was over 80000 nM. The GI50 in assay [7], in assay [8], in assay [9] and in assay [10] was over 80 µM each time. The TGI in [1], in assay [2], in [3], in [4], in assay [5] and in [6] was over 80 µM each time. Besides, the TGI in assay [7], in assay [8], in assay [9] and in assay [10] was over 80 µM in each case.

Regarding `C=C(CN(C)Cc1ccccc1)c1ccc(NC(=O)c2ccc(C(=C)CN(C)Cc3ccccc3)cc2)cc1`, the GI50 in assay [1] was 66.6 µM; in [2], over 100 µM; in [3], 71.6 µM; in [4] it was 40 µM; in assay [5] it was 45 µM; in assay [6], 59300 nM. Also, the GI50 in assay [7] is 49.8 µM; in assay [8], 20.7 µM; in [9], over 100 µM; in assay [10], 50.2 µM. The TGI in assay [1], in [2], in assay [3], in [4], in assay [5] and in assay [6] was over 100 µM each time. Further, the TGI is over 100 µM in [7], 87.4 µM in assay [8], over 100 µM in [9] and over 100 µM in assay [10].

Turning to `CCN(Cc1c(F)cccc1OC)c1ccc(CO)c(Cl)c1`, the GI50 in assay [1] is 16.8 µM; in assay [2], 20.9 µM; in assay [3], 17.8 µM; in [4], 19.1 µM; in assay [5], 0.623 µM; in [6] it was 165 nM. Moreover, the GI50 in assay [7] is 17.4 µM; in assay [8], 0.0467 µM; in [9], 0.0523 µM; in assay [10], 0.0961 µM. The TGI is 44.6 µM in assay [1]; over 79.1 µM in assay [2]; over 57.3 µM in assay [3]; 53.4 µM in assay [4]; 15.7 µM in assay [5]; 16.1 µM in assay [6]. Further, the TGI in assay [7] was 52.3 µM; in [8], 0.283 µM; in assay [9], 0.226 µM; in [10], 0.953 µM.

On to `COC(=O)/C=C/c1cc(OC(C)=O)c2c(c1)C(C(=O)OC)C(c1ccc(OC(C)=O)c(OC(C)=O)c1)O2` (stereo not given), for which the GI50 is 0.0779 µM in [1]; 0.0404 µM in assay [2]; 0.131 µM in assay [3]; 0.0521 µM in assay [4]; 0.0405 µM in assay [5]; 35.3 nM in assay [6]. The GI50 in assay [7] was 0.0582 µM; in assay [8] it was 3.11 µM; in assay [9], 13.7 µM; in assay [10] it was 0.298 µM. Further, the TGI was 35.5 µM in assay [1]; over 100 µM in [2]; over 100 µM in assay [3]; 68.2 µM in assay [4]; over 100 µM in assay [5]; 48.6 µM in [6]. Besides, the TGI is over 47.4 µM in [7], over 76.8 µM in assay [8], over 77.6 µM in assay [9] and 21.8 µM in [10].

On to `COc1ccc(CNc2c3ccccc3nc3ccccc23)cc1F`, for which the GI50 in [1] is 3.03 µM; in assay [2], 3.81 µM; in assay [3] it was 3.65 µM; in assay [4], 3.06 µM; in assay [5], 2.94 µM; in assay [6], 2110 nM. Further, the GI50 in assay [7] was 3.28 µM; in assay [8] it was 4.39 µM; in [9], 3.98 µM; in assay [10] it was 2.97 µM. The TGI in [1] is 11.3 µM; in assay [2], 35.6 µM; in assay [3], 12.4 µM; in [4], 11.5 µM; in assay [5] it was 12.3 µM; in [6] it was 5.4 µM. Further, the TGI is 14.6 µM in [7], 21.5 µM in assay [8], 16.7 µM in assay [9] and 12.9 µM in assay [10].

On to `NNc1ncnc2nc[nH]c12`, for which the GI50 in assay [1] was 4.78 µM; in assay [2], 2.97 µM; in assay [3], 3.29 µM; in assay [4] it was 7.71 µM; in assay [5], 3.4 µM; in assay [6], 3100 nM. Further, the GI50 is 5.31 µM in assay [7], 3.67 µM in assay [8], 57.6 µM in [9] and 3.05 µM in assay [10]. For the same compound, the TGI in assay [1] is over 94 µM; in assay [2], over 100 µM; in assay [3] it was 67.8 µM; in assay [4], over 70 µM; in [5] it was over 100 µM; in assay [6], over 100 µM. Also, the TGI in assay [7] is over 60.1 µM; in [8] it was over 100 µM; in assay [9] it was over 100 µM; in [10], 39.9 µM.

In the case of `CCOC(=O)Nc1c(C)nc2ccccn12`, the GI50 is over 100 µM in assay [1]; over 100 µM in [2]; over 100 µM in assay [3]; over 100 µM in assay [4]; over 100 µM in assay [5]; over 100000 nM in assay [6]. Further, the GI50 in assay [7], in assay [8], in assay [9] and in [10] was over 100 µM in each case. For the same compound, the TGI in [1], in assay [2], in assay [3], in assay [4], in [5] and in [6] was over 100 µM each time. In addition, the TGI in assay [7], in [8], in [9] and in [10] was over 100 µM throughout.

Consider `COc1c(C)c(OCC=C(C)C)cc(CO)c1CO`, for which the TGI in [1], in assay [2], in assay [3], in assay [4], in assay [5] and in assay [6] was over 100 µM throughout. In addition, the TGI in assay [7], in [8], in [9] and in assay [10] was over 100 µM throughout.
